# Molecular target: T1, GPR40 of human origin (Homo sapiens, UniProt O14842)
# T1 construct: expressed in transfected cells
# Assay: Agonist action on GPR40 of human origin (intracellular Ca2+ change)
# Format: cell-based
# Conditions: CHO cell strain stably expressing GPR40 of human origin; change in Ca2+ concentration, fluorescent calcium indicator
# Outline: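 CHO cells stably expressing human GPR40, cultured overnight, then loaded 1 h with Calcium 4 dye plus probenecid in HEPES-buffered HBSS. Compound added in 20 mM HEPES-HBSS; intracellular Ca2+ change read by fluorescence, EC50 from dose-response of fluorescence change.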
# T1 sequence (O14842 whole entry): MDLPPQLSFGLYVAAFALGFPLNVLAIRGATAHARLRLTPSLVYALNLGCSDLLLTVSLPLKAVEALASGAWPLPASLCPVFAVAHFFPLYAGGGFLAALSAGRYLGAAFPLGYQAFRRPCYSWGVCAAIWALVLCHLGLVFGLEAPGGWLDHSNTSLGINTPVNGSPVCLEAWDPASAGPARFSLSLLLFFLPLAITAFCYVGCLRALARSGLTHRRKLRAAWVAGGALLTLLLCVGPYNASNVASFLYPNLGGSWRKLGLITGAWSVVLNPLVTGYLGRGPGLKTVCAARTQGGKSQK
row,Structure (SMILES),EC50 [nM]
1,"CC(C)(O)CCOc1ccc(Oc2cccc3c2CC[C@H]3Oc2ccc(-c3cc(O)n[s+]3[O-])cc2)cn1 (stereo partly drawn) [Example 97, 3-hydroxy-5-(4-(((R)-4-((6-(3-hydroxy-3-methylbutoxy)pyridin-3-yl)oxy)-2,3-dihydro-1H-inden-1-yl)oxy)phenyl)isothiazole 1-oxide]",< 300
2,"CCOCCOc1ccc(Oc2cccc3c2CC[C@H]3Oc2ccc(-c3cc(O)n[s+]3[O-])cc2)cn1 (stereo partly drawn) [Example 98, 5-(4-(((R)-4-((6-(2-ethoxyethoxy)pyridin-3-yl)oxy)-2,3-dihydro-1H-inden-1-yl)oxy)phenyl)-3-hydroxyisothiazole 1-oxide]",< 300
3,"[O-][s+]1nc(O)cc1-c1ccc(O[C@@H]2CCc3c(Oc4cccc(OC(F)(F)F)c4)cccc32)cc1 (stereo partly drawn) [Example 99, 3-hydroxy-5-(4-(((R)-4-(3-(trifluoromethoxy)phenoxy)-2,3-dihydro-1H-inden-1-yl)oxy)phenyl)isothiazole 1-oxide]",< 300
4,"COc1ccc(Oc2cccc3c2CC[C@H]3Oc2ccc(-c3cc(O)n[s+]3[O-])cc2)cn1 (stereo partly drawn) [Example 100, 3-hydroxy-5-(4-(((R)-4-((6-methoxypyridin-3-yl)oxy)-2,3-dihydro-1H-inden-1-yl)oxy)phenyl)isothiazole 1-oxide]",< 300
5,"Cc1nc(OCCC(C)(C)O)ccc1Oc1cccc2c1CC[C@H]2Oc1ccc(-c2cc(O)n[s+]2[O-])cc1 (stereo partly drawn) [Example 101, 3-hydroxy-5-(4-(((R)-4-((6-(3-hydroxy-3-methylbutoxy)-2-methylpyridin-3-yl)oxy)-2,3-dihydro-1H-inden-1-yl)oxy)phenyl)isothiazole 1-oxide]",< 300
6,"CCOCCOc1ccc(Oc2cccc3c2CC[C@H]3Oc2ccc(-c3cc(O)n[s+]3[O-])cc2)c(C)n1 (stereo partly drawn) [Example 102, 5-(4-(((R)-4-((6-(2-ethoxyethoxy)-2-methylpyridin-3-yl)oxy)-2,3-dihydro-1H-inden-1-yl)oxy)phenyl)-3-hydroxyisothiazole 1-oxide]",< 300
7,"[O-][s+]1nc(O)cc1-c1ccc(O[C@@H]2CCc3c(Oc4ccc(OC(F)(F)F)cc4)cccc32)cc1 (stereo partly drawn) [Example 103, 3-hydroxy-5-(4-(((R)-4-(4-(trifluoromethoxy)phenoxy)-2,3-dihydro-1H-inden-1-yl)oxy)phenyl)isothiazole 1-oxide]",< 300
8,"[O-][s+]1nc(O)cc1-c1ccc(O[C@@H]2CCc3c(Oc4cnc5ccccc5c4)cccc32)cc1 (stereo partly drawn) [Example 104, 3-hydroxy-5-(4-(((R)-4-(quinolin-3-yloxy)-2,3-dihydro-1H-inden-1-yl)oxy)phenyl)isothiazole 1-oxide]",< 300
9,"COc1cc(C)c(Oc2cccc3c2CC[C@H]3Oc2ccc(-c3cc(O)n[s+]3[O-])cc2)cn1 (stereo partly drawn) [Example 105, 3-hydroxy-5-(4-(((R)-4-((6-methoxy-4-methylpyridin-3-yl)oxy)-2,3-dihydro-1H-inden-1-yl)oxy)phenyl)isothiazole 1-oxide]",< 300
10,"COc1ccc(Oc2cccc3c2CC[C@H]3Oc2ccc(-c3cc(O)n[s+]3[O-])cc2)c(C)n1 (stereo partly drawn) [Example 106, 3-hydroxy-5-(4-(((R)-4-((6-methoxy-2-methylpyridin-3-yl)oxy)-2,3-dihydro-1H-inden-1-yl)oxy)phenyl)isothiazole 1-oxide]",< 300
11,"CS(=O)(=O)c1ccc(Oc2cccc3c2CC[C@H]3Oc2ccc(-c3cc(O)n[s+]3[O-])cc2)cc1 (stereo partly drawn) [Example 107, 3-hydroxy-5-(4-(((R)-4-(4-(methylsulfonyl)phenoxy)-2,3-dihydro-1H-inden-1-yl)oxy)phenyl)isothiazole 1-oxide]",< 300
12,"CCOCCOc1cc(C)c(Oc2cccc3c2CC[C@H]3Oc2ccc(-c3cc(O)n[s+]3[O-])cc2)c(C)c1 (stereo partly drawn) [Example 108, 5-(4-(((R)-4-(4-(2-ethoxyethoxy)-2,6-dimethylphenoxy)-2,3-dihydro-1H-inden-1-yl)oxy)phenyl)-3-hydroxyisothiazole 1-oxide]",< 300
13,"[O-][s+]1nc(O)cc1-c1ccc(O[C@@H]2CCc3c(Oc4ccc(N5CCOCC5)nc4)cccc32)cc1 (stereo partly drawn) [Example 109, 3-hydroxy-5-(4-(((R)-4-((6-morpholinopyridin-3-yl)oxy)-2,3-dihydro-1H-inden-1-yl)oxy)phenyl)isothiazole 1-oxide]",< 300
14,"COc1ncc(Oc2cccc3c2CC[C@H]3Oc2ccc(-c3cc(O)n[s+]3[O-])cc2)cn1 (stereo partly drawn) [Example 110, 3-hydroxy-5-(4-(((R)-4-((2-methoxypyrimidin-5-yl)oxy)-2,3-dihydro-1H-inden-1-yl)oxy)phenyl)isothiazole 1-oxide]",< 300
15,"[O-][s+]1nc(O)cc1-c1ccc(O[C@@H]2CCc3c(Oc4ccsc4)cccc32)cc1 (stereo partly drawn) [Example 111, 3-hydroxy-5-(4-(((R)-4-(thiophen-3-yloxy)-2,3-dihydro-1H-inden-1-yl)oxy)phenyl)isothiazole 1-oxide]",< 300
16,"CC(C)(O)CCOc1cccc(Oc2cccc3c2CC[C@H]3Oc2ccc(-c3cc(O)n[s+]3[O-])cc2)c1 (stereo partly drawn) [Example 112, 3-hydroxy-5-(4-(((R)-4-(3-(3-hydroxy-3-methylbutoxy)phenoxy)-2,3-dihydro-1H-inden-1-yl)oxy)phenyl)isothiazole 1-oxide]",< 300
17,"CC(C)(O)CCOc1ccc(Oc2cccc3c2CC[C@H]3Oc2ccc(-c3cc(O)n[s+]3[O-])cc2)cc1 (stereo partly drawn) [Example 113, 3-hydroxy-5-(4-(((R)-4-(4-(3-hydroxy-3-methylbutoxy)phenoxy)-2,3-dihydro-1H-inden-1-yl)oxy)phenyl)isothiazole 1-oxide]",< 300
18,"COc1cc(Oc2cccc3c2CC[C@H]3Oc2ccc(-c3cc(O)n[s+]3[O-])cc2)ccn1 (stereo partly drawn) [Example 114, 3-hydroxy-5-(4-(((R)-4-((2-methoxypyridin-4-yl)oxy)-2,3-dihydro-1H-inden-1-yl)oxy)phenyl)isothiazole 1-oxide]",< 300
19,"CS(=O)(=O)CCCOc1ccc(Oc2cccc3c2CC[C@H]3Oc2ccc(-c3cc(O)n[s+]3[O-])cc2)cc1 (stereo partly drawn) [Example 115, 3-hydroxy-5-(4-(((R)-4-(4-(3-(methylsulfonyl)propoxy)phenoxy)-2,3-dihydro-1H-inden-1-yl)oxy)phenyl)isothiazole 1-oxide]",< 300

# Results, then the molecule that gave them:
row,EC50 [nM],Structure (SMILES)
1,< 300,"[O-][s+]1nc(O)cc1-c1ccc(O[C@@H]2CCc3c(-c4ccsc4)cccc32)cc1 (stereo partly drawn) [Example 82, 3-hydroxy-5-(4-(((R)-4-(thiophen-3-yl)-2,3-dihydro-1H-inden-1-yl)oxy)phenyl)isothiazole 1-oxide]"
2,< 300,"[O-][s+]1nc(O)cc1-c1ccc(O[C@@H]2CCc3c(Oc4cccc(C(F)(F)F)c4)cccc32)cc1 (stereo partly drawn) [Example 84, 3-hydroxy-5-(4-(((R)-4-(3-(trifluoromethyl)phenoxy)-2,3-dihydro-1H-inden-1-yl)oxy)phenyl)isothiazole 1-oxide]"
3,< 300,"N#Cc1cccc(Oc2cccc3c2CC[C@H]3Oc2ccc(-c3cc(O)n[s+]3[O-])cc2)c1 (stereo partly drawn) [Example 86, 3-(((1R)-1-(4-(3-hydroxy-1-oxidoisothiazol-5-yl)phenoxy)-2,3-dihydro-1H-inden-4-yl)oxy)benzonitrile]"
4,< 300,"[O-][s+]1nc(O)cc1-c1ccc(O[C@@H]2CCc3c(Oc4ccc(C(F)(F)F)cc4)cccc32)cc1 (stereo partly drawn) [Example 87, 3-hydroxy-5-(4-(((R)-4-(4-(trifluoromethyl)phenoxy)-2,3-dihydro-1H-inden-1-yl)oxy)phenyl)isothiazole 1-oxide]"
5,< 300,"[O-][s+]1nc(O)cc1-c1ccc(O[C@@H]2CCc3c(Oc4ccc(CCO)cc4)cccc32)cc1 (stereo partly drawn) [Example 88, 3-hydroxy-5-(4-(((R)-4-(4-(2-hydroxyethyl)phenoxy)-2,3-dihydro-1H-inden-1-yl)oxy)phenyl)isothiazole 1-oxide]"
6,< 300,"[O-][s+]1nc(O)cc1-c1ccc(O[C@@H]2CCc3c(Oc4cccc(CCO)c4)cccc32)cc1 (stereo partly drawn) [Example 89, 3-hydroxy-5-(4-(((R)-4-(3-(2-hydroxyethyl)phenoxy)-2,3-dihydro-1H-inden-1-yl)oxy)phenyl)isothiazole 1-oxide]"
7,< 300,"[O-][s+]1nc(O)cc1-c1ccc(O[C@@H]2CCc3c(Oc4ccccc4)cccc32)cc1 (stereo partly drawn) [Example 90, 3-hydroxy-5-(4-(((R)-4-phenoxy-2,3-dihydro-1H-inden-1-yl)oxy)phenyl)isothiazole 1-oxide]"
8,< 300,"COc1cccc(Oc2cccc3c2CC[C@H]3Oc2ccc(-c3cc(O)n[s+]3[O-])cc2)c1 (stereo partly drawn) [Example 91, 3-hydroxy-5-(4-(((R)-4-(3-methoxyphenoxy)-2,3-dihydro-1H-inden-1-yl)oxy)phenyl)isothiazole 1-oxide]"
9,< 300,"COc1ccc(Oc2cccc3c2CC[C@H]3Oc2ccc(-c3cc(O)n[s+]3[O-])cc2)cc1 (stereo partly drawn) [Example 92, 3-hydroxy-5-(4-(((R)-4-(4-methoxyphenoxy)-2,3-dihydro-1H-inden-1-yl)oxy)phenyl)isothiazole 1-oxide]"
10,< 300,"Cc1ccc(Oc2cccc3c2CC[C@H]3Oc2ccc(-c3cc(O)n[s+]3[O-])cc2)cc1 (stereo partly drawn) [Example 93, 3-hydroxy-5-(4-(((R)-4-(p-tolyloxy)-2,3-dihydro-1H-inden-1-yl)oxy)phenyl)isothiazole 1-oxide]"
11,< 300,"Cc1cccc(Oc2cccc3c2CC[C@H]3Oc2ccc(-c3cc(O)n[s+]3[O-])cc2)c1 (stereo partly drawn) [Example 94, 3-hydroxy-5-(4-(((R)-4-(m-tolyloxy)-2,3-dihydro-1H-inden-1-yl)oxy)phenyl)isothiazole 1-oxide]"
12,< 300,"Cc1ccccc1Oc1cccc2c1CC[C@H]2Oc1ccc(-c2cc(O)n[s+]2[O-])cc1 (stereo partly drawn) [Example 95, 3-hydroxy-5-(4-(((R)-4-(o-tolyloxy)-2,3-dihydro-1H-inden-1-yl)oxy)phenyl)isothiazole 1-oxide]"
13,< 300,"Cc1cccc(C)c1Oc1cccc2c1CC[C@H]2Oc1ccc(-c2cc(O)n[s+]2[O-])cc1 (stereo partly drawn) [Example 96, 5-(4-(((R)-4-(2,6-dimethylphenoxy)-2,3-dihydro-1H-inden-1-yl)oxy)phenyl)-3-hydroxyisothiazole 1-oxide]"

# — patent US8629102B2, “3-hydroxyisothiazole 1-oxide derivatives” (Mochida Pharmaceutical Co., Ltd., priority 2011, dated 2014)
